# Results as given in patent US20040200144A1, “Plant growth regulator and a method of producing the regulator” (Dainichiseika Color & Chemicals Mfg. Co., Ltd., priority 2003, published 2004).
# Legend:
# Format in all cases: in vivo
# tomato young plants = experiment: Dwarfing test of tomato young plant; conditions: for Plant Height / Dwarfing Rate: 5 ml per cell on 7th day, measured 20th day; for Dwarfing Rate: vs comparative group
# Protocol: 50 g of sodium tripolyphosphate was dissolved in 400 ml of distilled water at 80° C., 17.5 g of cinnamic acid was added to the sodium tripolyphosphate solution and dissolved by stirring, the resultant solution was diluted with distilled water until the total volume of solution was 500 ml, and thus 3.5% cinnamic acid aqueous solution (pH 6.5) was prepared. The aqueous solution was further diluted with distilled water 70 times or 17.5 times, and 0.05% cinnamic acid aqueous solution and 0.2% cinnamic acid aqueous solution were prepared, respectively.
# (§1) Nursery soil for house use was filled into paper joint pots (each with 24 cells: 34×43×50 mm/cell), water was sufficiently given to the soil, and seeds of carrots were sowed. After seeding, the pot was placed in the same greenhouse as described above to sprout. Subsequently, on the 5th day, the cinnamic aqueous acid solutions were added to the nursery soil in the joint pots. One of the joint pots (24 cells) was prepared as a 0.05% cinnamic acid aqueous solution addition group, and 5 ml of the 0.05% cinnamic acid aqueous solution was added to the nursery soil of each cell. Another one of the join pots was prepared as a 0.2% cinnamic acid aqueous solution addition group, and 5 ml of the 0.2% cinnamic acid aqueous solution was added to the nursery soil of each cell. The other one of the joint pots was prepared as a comparative group in which 5 ml of water is added to each cell, instead of the cinnamic acid aqueous solution. Subsequently, the cultivation of carrot young plants in each group was continued under general conditions. On the 27th day, the heights of young plants in each group were measured, the dwarfing rate (%) was calculated, and the dwarfing effect of cinnamic acid aqueous solution on carrot young plants was examined. […].
# In the same way as in Example 12 except that seeds of tomato were sowed, and that the cinnamic acid solutions were added to the nursery soil of the joint pot on the 7th day, the dwarfing effect of cinnamic acid aqueous solution on tomato young plants was examined. […]
# squash young plants = experiment: Dwarfing test of squash young plant; conditions: for Plant Height / Dwarfing Rate: 5 ml per cell on 7th day, measured 20th day; for Dwarfing Rate: vs comparative group
# Protocol: After seeding, the pot was placed in the same greenhouse as described above to sprout. Subsequently, on the 5th day, the cinnamic aqueous acid solutions were added to the nursery soil in the joint pots. One of the joint pots (24 cells) was prepared as a 0.05% cinnamic acid aqueous solution addition group, and 5 ml of the 0.05% cinnamic acid aqueous solution was added to the nursery soil of each cell. Another one of the join pots was prepared as a 0.2% cinnamic acid aqueous solution addition group, and 5 ml of the 0.2% cinnamic acid aqueous solution was added to the nursery soil of each cell. […] Subsequently, the cultivation of carrot young plants in each group was continued under general conditions. On the 27th day, the heights of young plants in each group were measured, the dwarfing rate (%) was calculated, and the dwarfing effect of cinnamic acid aqueous solution on carrot young plants was examined. From the results in Table 5, it became evident that the 0.05% and 0.2% cinnamic acid aqueous solutions are effective in dwarfing carrot young plants. In the same way as in Example 5 except that seeds of cauliflower were sowed, the cinnamic acid solutions were added to the nursery soil in the joint pot on the 4th day, and that heights of young plants in each group were measured on the 20th day, the dwarfing effect of cinnamic acid aqueous solution on cauliflower young plants was examined. From the results in Table 12, it became evident that the cinnamic acid aqueous solutions are effective in dwarfing cauliflower young plants. In the same way as in Example 12 except that seeds of tomato were sowed, and that the cinnamic acid solutions were added to the nursery soil of the joint pot on the 7th day, the dwarfing effect of cinnamic acid aqueous solution on tomato young plants was examined. From the results in Table 17, it became evident that the cinnamic acid aqueous solutions are effective in dwarfing tomato young plants. In the same way as in Example 17 except that seeds of squash were sowed, the dwarfing effect of cinnamic acid aqueous solution on squash young plants was examined. From the results in Table 20, it became evident that the cinnamic acid aqueous solutions are effective in dwarfing squash young plants.
# Poinsettia young plants = experiment: Dwarfing test of poinsettia young plant; conditions: for Plant Height / Dwarfing Rate: 100 ml per pot to nursery soil on 49th and 78th days, measured 93rd day; for Dwarfing Rate: vs comparative group
# Protocol: 18.4 g of potassium hydroxide was dissolved in 400 ml of distilled water at 20° C., 50 g of cinnamic acid was added to the potassium hydroxide solution and dissolved by stirring, the resultant solution was diluted with distilled water until the total volume of solution was 500 ml, and thus a cinnamic acid aqueous solution (pH 8.8) was prepared in a concentration of 10%. The aqueous solution was further diluted with distilled water 33.3 times or 20 times, and thus a cinnamic acid aqueous solution in a concentration of 0.3% or 0.5% was prepared, respectively.
# Poinsettia young plants with heights of about 10 cm were planted and fixed in pots (diameter of 14.5 cm and depth of 14.5 cm), and cultivated continuously. On the 49th and 78th days, 100 ml of 0.3% or 0.5% cinnamic acid aqueous solution prepared as described above was added to the nursery soil of each of 30 pots, and thus 0.3% cinnamic acid aqueous solution addition group and 0.5% cinnamic acid aqueous solution addition group were obtained. Further, 30 pots were prepared as a comparative group on which general watering was performed. The cultivation of young plants of each group was continued. On the 93rd day, the length from a surface of the soil of each cultivation pot to a head portion of the poinsettia young plant was measured, the dwarfing rate (%) was calculated using the following equation, and thus the dwarfing effect of cinnamic acid aqueous solution was examined (the same way was applied to following examples).
# Dwarfing rate (%)=[(the plant height of the comparative group)−(the plant height of an addition group)/the plant height of the comparative group]×100
# In addition, “plant height” in all the tables below was an average of heights from a surface of the soil of a pot used in each test to a head portion of the plant.
# field peas young plants = experiment: Dwarfing test of field peas young plant; conditions: for Plant Height / Dwarfing Rate: measured 24th day; for Dwarfing Rate: vs comparative group
# Protocol: 18.4 g of potassium hydroxide was dissolved in 400 ml of distilled water at 20° C., 50 g of cinnamic acid was added to the potassium hydroxide solution and dissolved by stirring, the resultant solution was diluted with distilled water until the total volume of solution was 500 ml, and thus 10% cinnamic acid aqueous solution (pH 8.8) was prepared. The aqueous solution was further diluted with distilled water 100 times or 33.3 times, and 0.1% cinnamic acid aqueous solution and 0.3% cinnamic acid aqueous solution were prepared, respectively.
# as §1
# In the same way as in Example 5 except that seeds of field peas were sowed, 0.1% and 0.3% cinnamic acid solutions in example 3 were added to the nursery soil in the joint pot, and that heights of young plants in each group were measured on the 24th day, the dwarfing effect of cinnamic acid aqueous solution on field peas young plants was examined. […]
# [1] = 0.1% aqueous solution of Example 3, 5 ml per cell on 5th day
# [2] = 0.3% aqueous solution of Example 3, 5 ml per cell on 5th day
smiles,measurement,setting,value
O=C(O)C=Cc1ccccc1 [cinnamic acid],Plant Height,tomato young plants; 0.05% aqueous solution,7.3 cm
same,Dwarfing Rate,tomato young plants; 0.05% aqueous solution,20.7%
same,Plant Height,tomato young plants; 0.2% aqueous solution,6.1 cm
same,Dwarfing Rate,tomato young plants; 0.2% aqueous solution,33.7%
same,dwarfing effect,"tomato young plants; tomato young plants, 0.05% and 0.2% aqueous solutions",effective
same,Plant Height,squash young plants; 0.05% aqueous solution,6.3 cm
same,Dwarfing Rate,squash young plants; 0.05% aqueous solution,27.6%
same,Plant Height,squash young plants; 0.2% aqueous solution,4.3 cm
same,Dwarfing Rate,squash young plants; 0.2% aqueous solution,50.6%
same,dwarfing effect,"squash young plants; squash young plants, 0.05% and 0.2% aqueous solutions",effective
same,Plant Height,Poinsettia young plants; 0.3% aqueous solution,19.2 cm
same,Dwarfing Rate,Poinsettia young plants; 0.3% aqueous solution,17.6%
same,Plant Height,Poinsettia young plants; 0.5% aqueous solution,18.1 cm
same,Dwarfing Rate,Poinsettia young plants; 0.5% aqueous solution,22.3%
same,dwarfing effect,"Poinsettia young plants; poinsettia young plants, 0.3% and 0.5% aqueous solutions",effective
same,Plant Height,field peas young plants; [1],24.3 cm
same,Dwarfing Rate,field peas young plants; [1],19.5%
same,Plant Height,field peas young plants; [2],18.1 cm
same,Dwarfing Rate,field peas young plants; [2],40.1%
same,dwarfing effect,"field peas young plants; field peas young plants, 0.1% and 0.3% aqueous solutions",effective
